# Experimental data as given in patent EP4678638A1, “NEW E3 UBIQUITIN LIGASE LIGAND, PROTEIN DEGRADATION AGENT AND USE THEREOF” (priority 2023, dated 2024).
# Columns and labels:
# Format in all cases: cell-based
# Conditions in all cases: Table D16
# IKZF2 = target: T1, IKZF2 (Homo sapiens, UniProt Q96SW2+Q9UKS7); test: Western blot degradation of IKZF2 (hPBMC)
# T1 construct: evaluate the effects of the compounds of the present disclosure on the expression of target proteins in cells; endogenous in cells; host or cells: hPBMC
# T1 sequence (Q9UKS7 whole entry): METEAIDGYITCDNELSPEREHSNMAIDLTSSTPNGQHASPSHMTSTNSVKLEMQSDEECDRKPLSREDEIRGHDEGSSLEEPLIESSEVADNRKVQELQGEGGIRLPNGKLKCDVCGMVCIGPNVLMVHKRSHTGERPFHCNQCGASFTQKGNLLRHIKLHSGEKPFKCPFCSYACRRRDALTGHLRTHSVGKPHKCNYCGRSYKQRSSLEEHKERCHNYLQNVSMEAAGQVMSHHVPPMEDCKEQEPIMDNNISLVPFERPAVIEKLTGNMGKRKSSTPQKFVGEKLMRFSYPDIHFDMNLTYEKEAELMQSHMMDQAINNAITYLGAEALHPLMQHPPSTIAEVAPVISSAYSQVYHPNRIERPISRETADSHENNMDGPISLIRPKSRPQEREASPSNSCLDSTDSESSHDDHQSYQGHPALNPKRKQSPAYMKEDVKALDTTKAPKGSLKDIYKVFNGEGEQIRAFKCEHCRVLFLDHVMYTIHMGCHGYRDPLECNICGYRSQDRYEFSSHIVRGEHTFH
# T1 sequence (Q96SW2 whole entry): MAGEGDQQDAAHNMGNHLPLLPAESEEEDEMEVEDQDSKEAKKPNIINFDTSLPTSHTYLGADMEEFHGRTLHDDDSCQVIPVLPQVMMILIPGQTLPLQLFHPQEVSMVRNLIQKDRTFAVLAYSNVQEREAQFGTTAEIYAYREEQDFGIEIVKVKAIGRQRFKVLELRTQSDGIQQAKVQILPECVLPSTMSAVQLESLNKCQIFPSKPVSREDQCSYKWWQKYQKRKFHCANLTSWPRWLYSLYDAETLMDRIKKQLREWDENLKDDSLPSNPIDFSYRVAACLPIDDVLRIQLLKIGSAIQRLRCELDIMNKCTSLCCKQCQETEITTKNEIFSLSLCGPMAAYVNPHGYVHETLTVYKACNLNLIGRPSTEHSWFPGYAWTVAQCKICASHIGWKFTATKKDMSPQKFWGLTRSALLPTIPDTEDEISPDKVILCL
# T1 sequence (Q16531 whole entry partner): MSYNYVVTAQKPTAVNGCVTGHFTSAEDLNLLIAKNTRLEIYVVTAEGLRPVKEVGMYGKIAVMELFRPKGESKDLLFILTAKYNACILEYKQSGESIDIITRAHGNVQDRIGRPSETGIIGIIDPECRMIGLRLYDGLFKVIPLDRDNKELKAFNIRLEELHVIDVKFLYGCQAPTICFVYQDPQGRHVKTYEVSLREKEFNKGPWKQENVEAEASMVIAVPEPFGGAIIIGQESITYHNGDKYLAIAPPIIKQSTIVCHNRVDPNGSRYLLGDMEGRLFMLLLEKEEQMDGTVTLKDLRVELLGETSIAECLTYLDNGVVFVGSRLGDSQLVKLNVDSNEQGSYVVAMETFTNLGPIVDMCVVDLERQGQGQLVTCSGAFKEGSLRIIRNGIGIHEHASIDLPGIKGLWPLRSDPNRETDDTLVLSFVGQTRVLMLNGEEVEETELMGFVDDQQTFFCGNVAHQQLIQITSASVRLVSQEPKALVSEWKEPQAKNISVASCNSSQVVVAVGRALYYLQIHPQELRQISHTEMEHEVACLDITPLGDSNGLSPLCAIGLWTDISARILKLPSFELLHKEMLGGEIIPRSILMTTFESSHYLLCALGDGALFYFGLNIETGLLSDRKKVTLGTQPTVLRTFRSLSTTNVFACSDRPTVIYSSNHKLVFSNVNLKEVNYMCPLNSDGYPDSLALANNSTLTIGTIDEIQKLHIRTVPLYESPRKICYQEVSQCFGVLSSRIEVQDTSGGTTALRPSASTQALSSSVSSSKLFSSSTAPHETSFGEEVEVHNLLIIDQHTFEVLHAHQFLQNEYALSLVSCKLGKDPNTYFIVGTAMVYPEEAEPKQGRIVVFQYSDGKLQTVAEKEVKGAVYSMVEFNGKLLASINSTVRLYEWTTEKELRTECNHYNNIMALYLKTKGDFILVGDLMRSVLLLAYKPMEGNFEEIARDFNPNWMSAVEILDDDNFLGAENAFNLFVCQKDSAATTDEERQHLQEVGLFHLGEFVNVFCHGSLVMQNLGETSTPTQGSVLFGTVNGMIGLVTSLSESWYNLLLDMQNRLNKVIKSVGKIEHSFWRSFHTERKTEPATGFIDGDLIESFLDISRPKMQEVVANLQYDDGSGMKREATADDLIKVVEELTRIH
# Method: (§1) Conventional Western blot assay was performed to evaluate the effects of the compounds of the present disclosure on the expression of target proteins in cells.
# (§2) (1) Cell Seeding and Protein Harvesting: The selected cells were processed according to the cell seeding procedure and protein harvesting procedure in Table III-2. Table III-2 Cell Seeding and Protein Harvesting Procedures
# (§3) (2) To the collected supernatant, 5X SDS sample loading buffer was added, followed by denaturation at 95°C for 5 minutes. The denatured samples were then separated by SDS-PAGE electrophoresis on a polyacrylamide gel. Proteins were transferred to a nitrocellulose membrane (0.45 µm NC membrane), blocked with blocking buffer at room temperature for 1 hour, and subjected to antibody incubation and development procedures according to the antibody manufacturer's instructions (Cell Signaling Technology).
# (§4) Half-Maximal Degradation Concentration value (the drug concentration required for degrading proteins by 50%, abbreviated as DC50) reads method: comparing the grayscale values of Western blot bands from drug-treated samples with those from blank DMSO-treated controls, and identifying the drug concentration range at which the grayscale value is half that of the DMSO-treated control bands.
# (§5) DC50 values can be calculated using ImageJ software to measure grayscale values of Western blot bands from drug-treated samples. The concentration-response curve is fitted to estimate the drug concentration corresponding to half the grayscale value.
# (§6) Target protein remaining (%) refers to the percentage of target protein remaining in hPBMC cells after treatment with protein degrader compounds.
# (§7) Calculation method for target protein remaining (%): Use ImageJ software to measure grayscale values of Western blot bands from drug (protein degrader)-treated samples. The grayscale value of drug-treated bands is divided by that of internal control protein bands, and the resulting quotient is normalized to obtain the relative percentage of remaining target protein after protein degrader treatment.
# (§8) Target protein degradation rate (%) = 100% - target protein remaining (%).
# IKZF3 = target: T2, IKZF3 (Homo sapiens, UniProt Q96SW2+Q9UKT9); test: Western blot degradation of IKZF3 (hPBMC)
# T2 construct: evaluate the effects of the compounds of the present disclosure on the expression of target proteins in cells; endogenous in cells; host or cells: hPBMC
# Method: as §1, §2, §3, §4, §5, §6, §7, §8
# GSPT1 = target: T3, GSPT1 (Homo sapiens, UniProt P15170+Q96SW2); test: Western blot degradation of GSPT1 (hPBMC)
# T3 construct: evaluate the effects of the compounds of the present disclosure on the expression of target proteins in cells; endogenous in cells; host or cells: hPBMC
# T3 sequence (P15170 whole entry): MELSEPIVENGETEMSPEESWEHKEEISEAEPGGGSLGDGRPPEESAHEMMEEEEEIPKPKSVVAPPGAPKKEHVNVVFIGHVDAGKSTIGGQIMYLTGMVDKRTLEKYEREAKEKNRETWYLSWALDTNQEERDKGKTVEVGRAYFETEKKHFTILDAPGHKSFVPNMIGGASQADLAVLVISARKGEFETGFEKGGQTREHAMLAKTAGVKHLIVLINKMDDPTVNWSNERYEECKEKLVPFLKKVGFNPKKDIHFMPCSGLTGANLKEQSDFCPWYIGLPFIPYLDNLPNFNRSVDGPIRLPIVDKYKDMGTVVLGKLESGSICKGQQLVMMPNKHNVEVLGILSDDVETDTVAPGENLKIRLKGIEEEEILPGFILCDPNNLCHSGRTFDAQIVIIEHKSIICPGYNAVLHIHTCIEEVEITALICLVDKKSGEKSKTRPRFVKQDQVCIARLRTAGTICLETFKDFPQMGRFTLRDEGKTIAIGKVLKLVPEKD
# T3 sequence (Q96SW2 whole entry): as the sequence (Q96SW2 whole entry) above
# T3 sequence (Q16531 whole entry partner): as the sequence (Q16531 whole entry partner) above
# Method: as §1, §2, §3, §4, §5, §6, §7, §8
# IKZF1 = target: T4, IKZF1 (Homo sapiens, UniProt Q13422+Q96SW2); test: Western blot degradation of IKZF1 (hPBMC)
# T4 construct: evaluate the effects of the compounds of the present disclosure on the expression of target proteins in cells; endogenous in cells; host or cells: hPBMC
# T4 sequence (Q13422 whole entry): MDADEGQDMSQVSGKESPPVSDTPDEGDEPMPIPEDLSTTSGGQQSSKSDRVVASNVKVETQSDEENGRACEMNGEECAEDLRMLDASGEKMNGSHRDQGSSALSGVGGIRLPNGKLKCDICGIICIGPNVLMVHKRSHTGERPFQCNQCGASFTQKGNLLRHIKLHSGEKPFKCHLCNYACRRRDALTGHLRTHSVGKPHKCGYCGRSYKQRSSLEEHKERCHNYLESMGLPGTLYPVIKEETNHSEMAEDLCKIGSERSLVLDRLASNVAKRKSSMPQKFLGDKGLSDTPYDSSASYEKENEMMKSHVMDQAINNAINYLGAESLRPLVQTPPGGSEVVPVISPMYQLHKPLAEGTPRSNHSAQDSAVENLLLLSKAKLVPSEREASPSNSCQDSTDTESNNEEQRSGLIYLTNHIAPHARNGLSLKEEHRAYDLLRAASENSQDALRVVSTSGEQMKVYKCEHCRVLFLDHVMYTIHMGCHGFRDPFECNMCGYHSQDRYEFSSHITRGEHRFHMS
# T4 sequence (Q96SW2 whole entry): as the sequence (Q96SW2 whole entry) above
# T4 sequence (Q16531 whole entry partner): as the sequence (Q16531 whole entry partner) above
# Method: as §1, §2, §3, §4, §5, §6, §7, §8
# CK1a = target: T5, CK1a (Homo sapiens, UniProt P48729+Q96SW2); test: Western blot degradation of CK1a (hPBMC)
# T5 construct: evaluate the effects of the compounds of the present disclosure on the expression of target proteins in cells; endogenous in cells; host or cells: hPBMC
# T5 sequence (P48729 whole entry): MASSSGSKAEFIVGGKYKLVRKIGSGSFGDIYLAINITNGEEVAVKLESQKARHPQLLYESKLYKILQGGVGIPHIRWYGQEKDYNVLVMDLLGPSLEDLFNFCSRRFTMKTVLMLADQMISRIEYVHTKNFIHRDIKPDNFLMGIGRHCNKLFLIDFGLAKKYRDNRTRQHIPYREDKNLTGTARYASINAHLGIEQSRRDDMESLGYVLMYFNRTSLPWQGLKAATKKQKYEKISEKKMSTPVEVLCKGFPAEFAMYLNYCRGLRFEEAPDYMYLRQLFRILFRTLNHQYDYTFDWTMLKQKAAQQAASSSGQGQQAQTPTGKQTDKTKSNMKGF
# T5 sequence (Q96SW2 whole entry): as the sequence (Q96SW2 whole entry) above
# T5 sequence (Q16531 whole entry partner): as the sequence (Q16531 whole entry partner) above
# Method: as §1, §2, §3, §4, §5, §6, §7, §8
# WEE1 = target: T6, WEE1 (Homo sapiens, UniProt P30291+Q96SW2); test: Western blot degradation of WEE1 (hPBMC)
# T6 construct: evaluate the effects of the compounds of the present disclosure on the expression of target proteins in cells; endogenous in cells; host or cells: hPBMC
# T6 sequence (P30291 whole entry): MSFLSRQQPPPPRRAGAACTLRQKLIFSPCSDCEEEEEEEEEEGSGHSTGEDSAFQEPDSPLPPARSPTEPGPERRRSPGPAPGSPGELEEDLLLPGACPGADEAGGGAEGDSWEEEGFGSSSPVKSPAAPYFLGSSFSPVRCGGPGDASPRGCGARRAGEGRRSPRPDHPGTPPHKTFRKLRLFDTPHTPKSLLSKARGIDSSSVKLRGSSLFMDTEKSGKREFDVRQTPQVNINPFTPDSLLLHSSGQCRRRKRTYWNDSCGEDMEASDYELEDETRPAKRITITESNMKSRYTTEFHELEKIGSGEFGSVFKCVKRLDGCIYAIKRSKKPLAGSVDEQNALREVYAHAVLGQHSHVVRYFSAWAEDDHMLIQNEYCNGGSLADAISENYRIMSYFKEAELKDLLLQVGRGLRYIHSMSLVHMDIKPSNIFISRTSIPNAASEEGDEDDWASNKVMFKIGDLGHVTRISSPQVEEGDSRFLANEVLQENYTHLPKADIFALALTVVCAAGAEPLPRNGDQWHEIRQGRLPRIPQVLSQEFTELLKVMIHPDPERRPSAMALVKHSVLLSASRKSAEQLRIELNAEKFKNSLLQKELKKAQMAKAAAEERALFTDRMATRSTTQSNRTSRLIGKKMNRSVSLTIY
# T6 sequence (Q96SW2 whole entry): as the sequence (Q96SW2 whole entry) above
# T6 sequence (Q16531 whole entry partner): as the sequence (Q16531 whole entry partner) above
# Method: as §1, §2, §3, §4, §5, §6, §7, §8
SMILES,Degradation of substrate protein IKZF2 (substrate protein remaining %) (IKZF2),Degradation of substrate protein IKZF3 (substrate protein remaining %) (IKZF3),Degradation of substrate protein GSPT1 (substrate protein remaining %) (GSPT1),Degradation of substrate protein IKZF1 (substrate protein remaining %) (IKZF1),Degradation of substrate protein CKla (substrate protein remaining %) (CK1a),Degradation of substrate protein WEE1 (substrate protein remaining %) (WEE1)
"CC(C)(C)[Si](C)(C)OCc1cncnc1NC1CCC(=O)NC1=O (stereo not drawn) [GT-07639, 3-((5-(((tert-Butyldimethylsilyl)oxy)methyl)pyrimidin-4-yl)amino)piperidine-2,6-dione]",A (A is defined as 0% ≤ substrate protein remaining % ≤ 80%),A (A is defined as 0% ≤ substrate protein remaining % ≤ 80%),A (A is defined as 0% ≤ substrate protein remaining % ≤ 80%),A (A is defined as 0% ≤ substrate protein remaining % ≤ 80%),A (A is defined as 0% ≤ substrate protein remaining % ≤ 80%),A (A is defined as 0% ≤ substrate protein remaining % ≤ 80%)
"O=C1CCC(c2ccc(CO)cn2)C(=O)N1 (stereo not drawn) [GT-07075, 3-(5-(Hydroxymethyl)pyridin-2-yl)piperidine-2,6-dione]",A (A is defined as 0% ≤ substrate protein remaining % ≤ 80%),A (A is defined as 0% ≤ substrate protein remaining % ≤ 80%),A (A is defined as 0% ≤ substrate protein remaining % ≤ 80%),B (B is defined as substrate protein remaining % > 80%),B (B is defined as substrate protein remaining % > 80%),B (B is defined as substrate protein remaining % > 80%)
"O=C1CCC(Nc2ccc(CO)nn2)C(=O)N1 (stereo not drawn) [GT-07803, 3-((6-(Hydroxymethyl)pyridazin-3-yl)amino)piperidine-2,6-dione]",A (A is defined as 0% ≤ substrate protein remaining % ≤ 80%),A (A is defined as 0% ≤ substrate protein remaining % ≤ 80%),B (B is defined as substrate protein remaining % > 80%),A (A is defined as 0% ≤ substrate protein remaining % ≤ 80%),B (B is defined as substrate protein remaining % > 80%),B (B is defined as substrate protein remaining % > 80%)
"NCc1cncc(N2CCC(=O)NC2=O)n1 [GT-07801, 1-(6-(Aminomethyl)pyrazin-2-yl)dihydropyrimidine-2,4(1H,3H)-dione]",B (B is defined as substrate protein remaining % > 80%),B (B is defined as substrate protein remaining % > 80%),B (B is defined as substrate protein remaining % > 80%),B (B is defined as substrate protein remaining % > 80%),A (A is defined as 0% ≤ substrate protein remaining % ≤ 80%),B (B is defined as substrate protein remaining % > 80%)
"CC(C)(C)[Si](C)(C)OCc1cnc(NC2CCC(=O)NC2=O)nc1 (stereo not drawn) [GT-07808, 3-((5-(((tert-Butyldimethylsilyl)oxy)methyl)pyrimidin-2-yl)amino)piperidine-2,6-dione]",A (A is defined as 0% ≤ substrate protein remaining % ≤ 80%),A (A is defined as 0% ≤ substrate protein remaining % ≤ 80%),B (B is defined as substrate protein remaining % > 80%),A (A is defined as 0% ≤ substrate protein remaining % ≤ 80%),B (B is defined as substrate protein remaining % > 80%),A (A is defined as 0% ≤ substrate protein remaining % ≤ 80%)
"CC(C)(C)[Si](C)(C)OCc1cncc(NC2CCC(=O)NC2=O)c1 (stereo not drawn) [GT-07449, 3-((5-(((tert-Butyldimethylsilyl)oxy)methyl)pyridin-3-yl)amino)piperidine-2,6-dione]",A (A is defined as 0% ≤ substrate protein remaining % ≤ 80%),B (B is defined as substrate protein remaining % > 80%),B (B is defined as substrate protein remaining % > 80%),B (B is defined as substrate protein remaining % > 80%),B (B is defined as substrate protein remaining % > 80%),B (B is defined as substrate protein remaining % > 80%)
"O=C1CCC(c2cnc(F)c(CO)c2)C(=O)N1 (stereo not drawn) [GT-07074, 3-(6-Fluoro-5-(hydroxymethyl)pyridin-3-yl)piperidine-2,6-dione]",A (A is defined as 0% ≤ substrate protein remaining % ≤ 80%),A (A is defined as 0% ≤ substrate protein remaining % ≤ 80%),A (A is defined as 0% ≤ substrate protein remaining % ≤ 80%),B (B is defined as substrate protein remaining % > 80%),B (B is defined as substrate protein remaining % > 80%),B (B is defined as substrate protein remaining % > 80%)
"CC(C)(C)[Si](C)(C)OCc1ccncc1NC1CCC(=O)NC1=O (stereo not drawn) [GT-07638, 3-((4-(((tert-Butyldimethylsilyl)oxy)methyl)pyridin-3-yl)amino)piperidine-2,6-dione]",A (A is defined as 0% ≤ substrate protein remaining % ≤ 80%),A (A is defined as 0% ≤ substrate protein remaining % ≤ 80%),A (A is defined as 0% ≤ substrate protein remaining % ≤ 80%),B (B is defined as substrate protein remaining % > 80%),B (B is defined as substrate protein remaining % > 80%),A (A is defined as 0% ≤ substrate protein remaining % ≤ 80%)
"O=C1CCC(c2ncc(CO)cc2F)C(=O)N1 (stereo not drawn) [GT-07443, 3-(3-Fluoro-5-(hydroxymethyl)pyridin-2-yl)piperidine-2,6-dione]",A (A is defined as 0% ≤ substrate protein remaining % ≤ 80%),B (B is defined as substrate protein remaining % > 80%),A (A is defined as 0% ≤ substrate protein remaining % ≤ 80%),A (A is defined as 0% ≤ substrate protein remaining % ≤ 80%),A (A is defined as 0% ≤ substrate protein remaining % ≤ 80%),A (A is defined as 0% ≤ substrate protein remaining % ≤ 80%)
"O=C1CCC(c2cc(CO)c(F)cn2)C(=O)N1 (stereo not drawn) [GT-07444, 3-(5-Fluoro-4-(hydroxymethyl)pyridin-2-yl)piperidine-2,6-dione]",A (A is defined as 0% ≤ substrate protein remaining % ≤ 80%),A (A is defined as 0% ≤ substrate protein remaining % ≤ 80%),B (B is defined as substrate protein remaining % > 80%),B (B is defined as substrate protein remaining % > 80%),B (B is defined as substrate protein remaining % > 80%),B (B is defined as substrate protein remaining % > 80%)
"O=C1CCN(c2ccc(CCl)cn2)C(=O)N1 [GT-07009, 1-(5-(Chloromethyl)pyridin-2-yl)dihydropyrimidine-2,4(1H,3H)-dione]",B (B is defined as substrate protein remaining % > 80%),B (B is defined as substrate protein remaining % > 80%),B (B is defined as substrate protein remaining % > 80%),B (B is defined as substrate protein remaining % > 80%),A (A is defined as 0% ≤ substrate protein remaining % ≤ 80%),B (B is defined as substrate protein remaining % > 80%)
